We go through 16 compounds from article PMC7901646, “Pyrrolo[2′,3′:3,4]cyclohepta[1,2-d][1,2]oxazoles, a New Class of Antimitotic Agents Active against Multiple Malignant Cell Types” (Journal of Medicinal Chemistry, 2020).

Experiment in all cases: MTT cell proliferation, lymphoma
What all share (format): cell-based

One experiment relates to HBL1 (ABC DLBCL). The note with it: Homo sapiens, 72 h; for activity at 1 µM: of untreated cells, read-out: Proliferating cells (%); for IC50: MTT. The method, then: (§1) All compounds were further tested at the concentration of 1 μM on four cell lines derived from distinct lymphoma histotypes, plus two with secondary resistance to the PI3Kδ inhibitor idelalisib[51] or to the BTK inhibitor ibrutinib.[52] […] For comparison, the same experiments were conducted using compound 3, but the response to it was minimal, and thus it was not considered further.
(§2) Established human cell lines derived from germinal center B-cell (GCB) (SU-DHL-10), activated B-cell (ABC) (HBL1) diffuse large B-cell lymphoma (DLBCL), mantle cell lymphoma (MCL) (MINO), splenic marginal zone lymphoma (SMZL) (parental VL51, VL51 idelalisib resistant clone, VL51 ibrutinib resistant clone) were cultured in culture RPMI-1640 media supplemented with fetal bovine serum (10%), penicillin–streptomycin–neomycin (∼5,000 units of penicillin, 5 mg of streptomycinm and 10 mg of neomycin/mL, Sigma), and L-glutamine (1%). Vincristine sulfate was purchased from Sigma-Aldrich. Cell line identities were confirmed by CellCheck test (IDEXX, BioResearch, Ludwigsburg, Germany). All compounds were dissolved in dimethyl sulfoxide to obtain a stock concentration of 10 mM.
(§3) The antiproliferative activity of all compounds was assessed by using the 3-(4.5-dimethylthiazolyl-2)-2,5-diphenyltetrazolium bromide (MTT) test. Cells were seeded in 96-well plates (nontissue culture treated) at a density of 1 × 10^5 cells/mL and treated with a single concentration of 1 μM for 72 h. […] In this case, cells were treated in triplicate with serially diluted compounds in the appropriate tissue culture medium at a range of 40–10 000 nM. Cells were incubated for 72 h at 37 °C, 5% CO2. Wells containing medium only were included on each plate and served as blanks for absorbance readings. MTT (Sigma, Buchs, Switzerland) was prepared as a 5 mg/mL stock solution in phosphate buffered saline (PBS) and filter-sterilized. MTT solution (22 μL) was added to each well, and tissue culture plates were incubated at 37 °C for 4 h. Cells were then lysed with 25% sodium dodecyl sulfate lysis buffer, and absorbance was read at 570 nm using a Beckman Coulter-AD340 plate reader.

A further experiment has as its system MINO (MCL). As to conditions: Homo sapiens, 72 h; for activity at 1 µM: of untreated cells, read-out: Proliferating cells (%); for IC50: MTT. The method, then: as §1, §2, §3
The next experiment relates to SU-DHL-10 (GCB DLBCL). The note with it: Homo sapiens, SU-DHL10, 72 h; for activity at 1 µM: of untreated cells, read-out: Proliferating cells (%); for IC50: MTT. As for the experimental part:
as §1, §2, §3

For the next experiment, the system named is VL51 (MZL). The note with it: Homo sapiens, 72 h; for activity at 1 µM: of untreated cells, read-out: Proliferating cells (%); for IC50: MTT. As for the experimental part: as §1, §2, §3
The next experiment has as its system VL51 ibrutinib-resistant. As to conditions: Homo sapiens, 72 h, of untreated cells, read-out: Proliferating cells (%). As for the experimental part: as §1, §2, §3
For experiment [1], the system named is VL51 idelalisib-resistant. As to conditions: Homo sapiens, 72 h, of untreated cells, read-out: Proliferating cells (%). As for the experimental part: as §1, §2, §3

Turning to `CCOC(=O)c1cc2c(n1C)-c1oncc1CCC2` [Compound 60, Ethyl 9-Methyl-4,5,6,9-tetrahydropyrrolo[2′,3′:3,4]cyclohepta[1,2-d][1,2]oxazole-8-carboxylate], the activity at 1 µM with HBL1 (ABC DLBCL) amounted to 146%; with MINO (MCL), 112%; in the experiment with SU-DHL-10 (GCB DLBCL) it was 61.7%; in the experiment with VL51 (MZL), 108%; in the experiment with VL51 ibrutinib-resistant, 125%; in experiment [1] it was 115%.

Regarding `c1ccc(Cn2ccc3c2-c2oncc2CCC3)cc1` [Compound 53, 9-Benzyl-4,5,6,9-tetrahydropyrrolo[2′,3′:3,4]cyclohepta[1,2-d][1,2]oxazole], the activity at 1 µM in the experiment on HBL1 (ABC DLBCL) amounted to 109%; with MINO (MCL) it was 109%; with SU-DHL-10 (GCB DLBCL) it was 70.2%; in the experiment on VL51 (MZL) it was 103%; with VL51 ibrutinib-resistant, 125%; in experiment [1], 128%.

With `CCOC(=O)c1cc2c(n1Cc1cc(OC)ccc1OC)-c1oncc1CCC2` [Compound 65, Ethyl 9-(2,5-Dimethoxybenzyl)-4,5,6,9-tetrahydropyrrolo[2′,3′:3,4]cyclohepta[1,2-d][1,2]oxazole-8-carboxylate], the activity at 1 µM in the experiment on HBL1 (ABC DLBCL) stood at 111%; in the experiment on MINO (MCL) it was 107%; in the experiment with SU-DHL-10 (GCB DLBCL) it was 71.6%; in the experiment on VL51 (MZL), 86.2%; with VL51 ibrutinib-resistant, 94%; in experiment [1], 96.4%.

For the compound `Cn1ccc2c1-c1oncc1CCC2` [Compound 52, 9-Methyl-4,5,6,9-tetrahydropyrrolo[2′,3′:3,4]cyclohepta[1,2-d][1,2]oxazole], the activity at 1 µM amounted to 101% in the experiment with HBL1 (ABC DLBCL); 104% in the experiment on MINO (MCL); 70.2% in the experiment with SU-DHL-10 (GCB DLBCL); 87.4% in the experiment on VL51 (MZL); 100% in the experiment on VL51 ibrutinib-resistant; 107% in experiment [1].

As to `CCOC(=O)c1c(Cl)c2c(n1Cc1ccc(OC)cc1)-c1oncc1CCC2` [Compound 73, Ethyl 7-Chloro-9-(4-methoxybenzyl)-4,5,6,9-tetrahydropyrrolo[2′,3′:3,4]cyclohepta[1,2-d][1,2]oxazole-8-carboxylate], the activity at 1 µM with HBL1 (ABC DLBCL) came out at 107%; with MINO (MCL) it was 99.5%; with SU-DHL-10 (GCB DLBCL), 87.4%; with VL51 (MZL), 113%; with VL51 ibrutinib-resistant it was 102%; in experiment [1], 126%.

For the compound `CCOC(=O)c1cc2c(n1Cc1ccccc1)-c1oncc1CCC2` [Compound 61, Ethyl 9-Benzyl-4,5,6,9-tetrahydropyrrolo[2′,3′:3,4]cyclohepta[1,2-d][1,2]oxazole-8-carboxylate], the activity at 1 µM with HBL1 (ABC DLBCL) turned out to be 124%; in the experiment with MINO (MCL), 106%; in the experiment on SU-DHL-10 (GCB DLBCL), 65.2%; with VL51 (MZL), 93.3%; with VL51 ibrutinib-resistant it was 118%; in experiment [1] it was 117%.

Take `CCOC(=O)c1c(Cl)c2c(n1Cc1cc(OC)ccc1OC)-c1oncc1CCC2` [Compound 74, Ethyl 7-Chloro-9-(2,5-dimethoxybenzyl)-4,5,6,9-tetrahydropyrrolo[2′,3′:3,4]cyclohepta[1,2-d][1,2]oxazole-8-carboxylate]: the activity at 1 µM in the experiment with HBL1 (ABC DLBCL) is 29%; with MINO (MCL), 9.8%; in the experiment with SU-DHL-10 (GCB DLBCL), 13.3%; in the experiment with VL51 (MZL), 40.4%; with VL51 ibrutinib-resistant, 44.4%; in experiment [1] it was 37.7%. The IC50 in the experiment with HBL1 (ABC DLBCL) stood at 1000 nM; in the experiment with MINO (MCL), 800 nM; with SU-DHL-10 (GCB DLBCL) it was 700 nM; in the experiment with VL51 (MZL), 500 nM.

For `COC(=O)c1cc2c(n1Cc1ccccc1)-c1oncc1CCC2` [Compound 68, Methyl 9-Benzyl-4,5,6,9-tetrahydropyrrolo[2′,3′:3,4]cyclohepta[1,2-d][1,2]oxazole-8-carboxylate], the activity at 1 µM in the experiment with HBL1 (ABC DLBCL) is 109%; in the experiment on MINO (MCL) it was 98.8%; with SU-DHL-10 (GCB DLBCL), 78.9%; in the experiment on VL51 (MZL) it was 94.5%; in the experiment with VL51 ibrutinib-resistant, 120%; in experiment [1], 123%.

For `COc1cccc(Cn2ccc3c2-c2oncc2CCC3)c1` [Compound 55, 9-(3-Methoxybenzyl)-4,5,6,9-tetrahydropyrrolo[2′,3′:3,4]cyclohepta[1,2-d][1,2]oxazole], the activity at 1 µM is 127% with HBL1 (ABC DLBCL); 115% in the experiment on MINO (MCL); 80.3% in the experiment with SU-DHL-10 (GCB DLBCL); 112% in the experiment on VL51 (MZL); 125% in the experiment on VL51 ibrutinib-resistant; 133% in experiment [1].

For `CCOC(=O)c1c(Cl)c2c(n1C)-c1oncc1CCC2` [Compound 69, Ethyl 7-Chloro-9-methyl-4,5,6,9-tetrahydropyrrolo[2′,3′:3,4]cyclohepta[1,2-d][1,2]oxazole-8-carboxylate], the activity at 1 µM with HBL1 (ABC DLBCL) was 103%; in the experiment on MINO (MCL), 116%; with SU-DHL-10 (GCB DLBCL) it was 78.5%; with VL51 (MZL), 93.8%; in the experiment on VL51 ibrutinib-resistant, 110%; in experiment [1], 121%.

Regarding `CCOC(=O)c1c(Cl)c2c(n1Cc1ccccc1OC)-c1oncc1CCC2` [Compound 71, Ethyl 7-Chloro-9-(2-methoxybenzyl)-4,5,6,9-tetrahydropyrrolo[2′,3′:3,4]cyclohepta[1,2-d][1,2]oxazole-8-carboxylate], the activity at 1 µM amounted to 97% with HBL1 (ABC DLBCL); 55.9% in the experiment on MINO (MCL); 58.2% with SU-DHL-10 (GCB DLBCL); 58.8% in the experiment on VL51 (MZL); 56.2% in the experiment with VL51 ibrutinib-resistant; 52.2% in experiment [1]. Besides, the IC50 with HBL1 (ABC DLBCL) is greater than 5000 nM; in the experiment on MINO (MCL), 3400 nM; in the experiment on SU-DHL-10 (GCB DLBCL) it was 2200 nM; with VL51 (MZL), 2400 nM.

Regarding `CCOC(=O)c1cc2c(n1Cc1ccc(OC)cc1)-c1oncc1CCC2` [Compound 64, Ethyl 9-(4-Methoxybenzyl)-4,5,6,9-tetrahydropyrrolo[2′,3′:3,4]cyclohepta[1,2-d][1,2]oxazole-8-carboxylate], the activity at 1 µM in the experiment with HBL1 (ABC DLBCL) was found to be 125%; in the experiment on MINO (MCL), 112%; with SU-DHL-10 (GCB DLBCL), 66.3%; in the experiment with VL51 (MZL), 87.4%; with VL51 ibrutinib-resistant, 102%; in experiment [1], 116%.

On to `COc1ccccc1Cn1ccc2c1-c1oncc1CCC2` [Compound 54, 9-(2-Methoxybenzyl)-4,5,6,9-tetrahydropyrrolo[2′,3′:3,4]cyclohepta[1,2-d][1,2]oxazole], for which the activity at 1 µM in the experiment with HBL1 (ABC DLBCL) turned out to be 122%; in the experiment on MINO (MCL), 112%; in the experiment on SU-DHL-10 (GCB DLBCL), 141%; in the experiment on VL51 (MZL), 120%; in the experiment on VL51 ibrutinib-resistant it was 112%; in experiment [1], 136%.

Turning to `CCOC(=O)c1c(Cl)c2c(n1Cc1cccc(OC)c1)-c1oncc1CCC2` [Compound 72, Ethyl 7-Chloro-9-(3-methoxybenzyl)-4,5,6,9-tetrahydropyrrolo[2′,3′:3,4]cyclohepta[1,2-d][1,2]oxazole-8-carboxylate], the activity at 1 µM turned out to be 105% with HBL1 (ABC DLBCL); 110% in the experiment with MINO (MCL); 76.9% in the experiment with SU-DHL-10 (GCB DLBCL); 107% in the experiment on VL51 (MZL); 103% in the experiment on VL51 ibrutinib-resistant; 128% in experiment [1].

On to `COc1cc(Cn2ccc3c2-c2oncc2CCC3)cc(OC)c1OC` [Compound 59, 9-(3,4,5-Trimethoxybenzyl)-4,5,6,9-tetrahydropyrrolo[2′,3′:3,4]cyclohepta[1,2-d][1,2]oxazole], for which the activity at 1 µM in the experiment on HBL1 (ABC DLBCL) is 114%; in the experiment with MINO (MCL), 99%; in the experiment with SU-DHL-10 (GCB DLBCL), 94.6%; in the experiment with VL51 (MZL), 97.6%; with VL51 ibrutinib-resistant it was 92.1%; in experiment [1], 112%.

For `O=S(=O)(c1ccccc1)n1ccc2c1-c1oncc1CCC2` [Compound 51, 9-(Phenylsulfonyl)-4,5,6,9-tetrahydropyrrolo[2′,3′:3,4]cyclohepta[1,2-d][1,2]oxazole], the activity at 1 µM with HBL1 (ABC DLBCL) stood at 118%; in the experiment on MINO (MCL), 104%; in the experiment on SU-DHL-10 (GCB DLBCL), 110%; with VL51 (MZL), 88.1%; in the experiment with VL51 ibrutinib-resistant it was 121%; in experiment [1], 118%.
